Where a name gives a salt, the structure may show the parent alone. Read-outs that look alike come from different tables or passages of the source.
Legend:
[1] = test system: A549; experiment: Cell-based assay, anti-proliferative activity (Cell Counting Kit-8, 72 hours); settings: read-out: IC50 (μM) A549
In short: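 Following seeding into 96-well microtiter plates, the cells receive candidate inhibitors, and cellular growth is quantified at the end of the exposure period. An IC50 is computed for each compound.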

[2] = biological target: SUV39H2 (Homo sapiens (Human), UniProt Q9H5I1); settings: read-out: IC50 (μM) Suv 39H2 assay
SUV39H2, sequence (Q9H5I1 whole entry): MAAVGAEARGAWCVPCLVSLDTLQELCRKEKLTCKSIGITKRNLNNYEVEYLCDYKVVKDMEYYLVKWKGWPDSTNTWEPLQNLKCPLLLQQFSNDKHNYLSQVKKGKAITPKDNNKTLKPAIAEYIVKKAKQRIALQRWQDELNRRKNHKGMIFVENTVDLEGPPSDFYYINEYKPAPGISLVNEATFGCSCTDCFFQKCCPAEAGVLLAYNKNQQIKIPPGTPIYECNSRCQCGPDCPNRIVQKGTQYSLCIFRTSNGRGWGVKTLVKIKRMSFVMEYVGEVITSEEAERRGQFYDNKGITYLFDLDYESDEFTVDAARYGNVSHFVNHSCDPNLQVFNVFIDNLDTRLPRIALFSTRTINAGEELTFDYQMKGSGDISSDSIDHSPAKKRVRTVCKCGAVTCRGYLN

[3] = test system: CCD-18Co; experiment: Cell-based assay, anti-proliferative activity (Cell Counting Kit-8, 72 hours); settings: read-out: IC50 (μM) CCD-18Co
In short: (§1)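 Cells were seeded in 96-well plates and exposed to the inhibitors for 72 hours, after which growth was measured with Cell Counting Kit-8. IC50 was derived from a serial dilution series of 0, 1.5625, 3.125, 6.25, 12.5, 25, 50 and 100 micro-M.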

[4] = test system: HCT-116; experiment: as above; settings: read-out: IC50 (μM) HCT-116
In short: as §1

[5] = test system: PC14; experiment: as above; settings: read-out: IC50 (μM) PC14
In short: as §1

[6] = test system: HFL1; experiment: as above; settings: read-out: IC50 (μM) HFL1
In short: as §1

[7] = Homo sapiens, A549 cells, Cell Counting Kit-8, 72 hours
[8] = Homo sapiens, CCD-18Co cells, Cell Counting Kit-8, 72 hours
[9] = Homo sapiens, HCT-116 cells, Cell Counting Kit-8, 72 hours
[10] = Homo sapiens, PC-14, PC14 cells, Cell Counting Kit-8, 72 hours
[11] = Homo sapiens, HFL1 cells, Cell Counting Kit-8, 72 hours
[12] = Homo sapiens, CCD-18Co cells, 72 hours, Cell Counting Kit-8
[13] = Homo sapiens, HCT-116 cells, 72 hours, Cell Counting Kit-8
[14] = Homo sapiens, PC-14, PC14 cells, 72 hours, Cell Counting Kit-8
[15] = Homo sapiens, HFL1 cells, 72 hours, Cell Counting Kit-8

Row | Compound | IC50 ([2]; enzyme assay) | IC50 [1, 7] | IC50 [3, 8] | IC50 [4, 9] | IC50 [5, 10] | IC50 [6, 11] | further results
1 | 1-(4-(2-(5-chloro-2-(3-(dimethylamino)propoxy)-4-methoxyphenyl)-imidazo[1,2-a]pyridin-7-yl)piperazin-1-yl)-2,2-dimethylpropan-1-one [Example 154] | 0.0135 µM | – | – | – | – | – | IC50 ([1]; A549 cells, Cell Counting Kit-8, 72 hours): 6.9 µM; IC50 ([3]; CCD-18Co cells, Cell Counting Kit-8, 72 hours): 8.7 µM; IC50 ([4]; HCT-116 cells, Cell Counting Kit-8, 72 hours): 7.9 µM; IC50 ([5]; PC14 cells, Cell Counting Kit-8, 72 hours): 8 µM; IC50 ([6]; HFL1 cells, Cell Counting Kit-8, 72 hours): 4.3 µM
2 | 4-(2-(5-chloro-2,4-dimethoxyphenyl)imidazo[1,2-a]pyridin-7-yl)-N-(pyrrolidin-2-ylmethyl)benzamide [Example 249] | 0.035 µM | – | – | – | – | – | IC50 ([1]; A549 cells, 72 hours, Cell Counting Kit-8): 5.4 µM; IC50 ([3]; CCD-18Co cells, 72 hours, Cell Counting Kit-8): 5.2 µM; IC50 ([4]; HCT-116 cells, 72 hours, Cell Counting Kit-8): 3.7 µM; IC50 ([5]; PC14 cells, 72 hours, Cell Counting Kit-8): 4.8 µM; IC50 ([6]; HFL1 cells, 72 hours, Cell Counting Kit-8): 5.4 µM
3 | COc1cc(OC)c(-c2cn3ccc(N4CCCC4)nc3n2)cc1Br [Example 3, 2-(5-bromo-2,4-dimethoxyphenyl)-7-(pyrrolidin-1-yl)imidazo[1,2-a]pyrimidine] | 0.00858 µM | 11 µM | 6.8 µM | 8.1 µM | 7.1 µM | 7.4 µM | –
4 | COc1cc(OC)c(-c2cn3ccc(N4CCCC4)cc3n2)cc1Cl [Example 4, 2-(5-chloro-2,4-dimethoxyphenyl)-7-(pyrrolidin-1-yl)imidazo[1,2-a]pyridine hydrobromide] | 0.0031 µM | 2 µM | 1.1 µM | 1.5 µM | 1.4 µM | 1.4 µM | –
5 | CNc1ccn2cc(-c3cc(Cl)c(OC)cc3OC)nc2c1 [Example 6, 2-(5-chloro-2,4-dimethoxyphenyl)-N-methylimidazo[1,2-a]pyridin-7-amine hydrobromide] | 0.00943 µM | – | – | – | – | – | IC50 ([1]; Homo sapiens, A549, 72 h): 2.2 µM; IC50 ([3]; Homo sapiens, CCD-18Co, 72 h): 2.7 µM; IC50 ([4]; Homo sapiens, HCT-116, 72 h): 1.7 µM; IC50 ([5]; Homo sapiens, PC-14, 72 h): 1.4 µM; IC50 ([6]; Homo sapiens, HFL1, 72 h): 1 µM
6 | COc1cc(OC)c(-c2cn3ccc(N4CCC(O)C4)cc3n2)cc1Br (stereo not shown) [Example 7, 1-(2-(5-bromo-2,4-dimethoxyphenyl)imidazo[1,2-a]pyridin-7-yl)pyrrolidin-3-ol] | 0.00544 µM | – | – | – | – | – | IC50 ([1]; Homo sapiens, A549, 72 h): 6.9 µM; IC50 ([3]; Homo sapiens, CCD-18Co, 72 h): 7.6 µM; IC50 ([4]; Homo sapiens, HCT-116, 72 h): 7 µM; IC50 ([5]; Homo sapiens, PC-14, 72 h): 6.1 µM; IC50 ([6]; Homo sapiens, HFL1, 72 h): 6.8 µM
7 | COc1cc(OC)c(-c2cn3ccc(N4CCCC4)nc3n2)cc1Cl [Example 9, 2-(5-chloro-2,4-dimethoxyphenyl)-7-(pyrrolidin-1-yl)imidazo-[1,2-a]pyrimidine hydrobromide] | 0.00608 µM | 8 µM | 8 µM | 6.8 µM | 6.3 µM | 7.1 µM | –
8 | CNc1ccn2cc(-c3cc(Br)c(OC)cc3OC)nc2c1 [Example 11, 2-(5-bromo-2,4-dimethoxyphenyl)-N-methylimidazo[1,2-a]pyridin-7-amine hydrobromide] | 0.0094 µM | – | – | – | – | – | IC50 ([1]; Homo sapiens, A549, 72 h): 1.4 µM; IC50 ([3]; Homo sapiens, CCD-18Co, 72 h): 2 µM; IC50 ([4]; Homo sapiens, HCT-116, 72 h): 1.1 µM; IC50 ([5]; Homo sapiens, PC-14, 72 h): 0.88 µM; IC50 ([6]; Homo sapiens, HFL1, 72 h): 1.7 µM
9 | COc1cc(OC)c(-c2cn3ccc(N4CCOCC4)cc3n2)cc1Cl [Example 12, 4-(2-(5-chloro-2,4-dimethoxyphenyl)imidazo[1,2-a]pyridin-7-yl)morpholine hydrobromide] | 0.012 µM | 6.9 µM | 9 µM | 5.1 µM | 2.9 µM | 6.8 µM | –
10 | COc1cc(OC)c(-c2cn3ccc(N(C)C)cc3n2)cc1Cl [Example 22, 2-(5-chloro-2,4-dimethoxyphenyl)-N,N-dimethylimidazo[1,2-a]pyridin-7-amine hydrobromide] | 0.00515 µM | 1.6 µM | 3.6 µM | 3.3 µM | 1.6 µM | 1.7 µM | –
11 | COc1cc(OC)c(-c2cn3ccc(N4CCC(NC(=O)OC(C)(C)C)C4)cc3n2)cc1Cl (stereo not shown) [Example 23, tert-butyl{1-[2-(5-chloro-2,4-dimethoxyphenyl)imidazo[1,2-a]pyridin-7-yl]pyrrolidin-3-yl}carbamate] | 0.00635 µM | 2.4 µM | 2.8 µM | 1.8 µM | 1.7 µM | 1.2 µM | –
12 | CNC1CCN(c2ccn3cc(-c4cc(Cl)c(OC)cc4OC)nc3c2)CC1 [Example 24, 1-(2-(5-chloro-2,4-dimethoxyphenyl)imidazo[1,2-a]pyridin-7-yl)-N-methylpiperidin-4-amine hydrochloride] | – | – | – | – | – | – | IC50 ([1]; Homo sapiens, A549, 72 h): 5.5 µM; IC50 [2]: 0.00939 µM; IC50 ([3]; Homo sapiens, CCD-18Co, 72 h): 11 µM; IC50 ([4]; Homo sapiens, HCT-116, 72 h): 4.4 µM; IC50 ([5]; Homo sapiens, PC-14, 72 h): 5.7 µM; IC50 ([6]; Homo sapiens, HFL1, 72 h): 2.7 µM
13 | COc1cc(OC)c(-c2cn3ccc(N4CCC[C@@H](N)C4)cc3n2)cc1Cl [Example 30, (R)-1-(5-chloro-2,4-dimethoxyphenyl)imidazo[1,2-a]pyridine-7-yl)piperidin-3-amine dihydrochloride] | 0.009 µM | 3.4 µM | 3.9 µM | 5.1 µM | 2.3 µM | 2 µM | –
14 | COc1cc(OC)c(-c2cn3ccc(N4CCC(N)C4)cc3n2)cc1Cl (stereo not shown) [Example 33, 1-[2-(5-chloro-2,4-dimethoxyphenyl)imidazo[1,2-a]pyridin-7-yl]pyrrolidin-3-amine] | 0.00704 µM | 3.1 µM | 3.2 µM | 3.3 µM | 1.7 µM | 2.2 µM | –
15 | COc1cc(OC)c(-c2cn3ccc(N4CCC(NC(C)=O)C4)cc3n2)cc1Cl (stereo not shown) [Example 37, N-(1-(2-(5-chloro-2,4-dimethoxyphenyl)imidazo[1,2-a]pyridin-7-yl)pyrrolidin-3-yl)acetamide] | 0.00435 µM | 14 µM | 11 µM | 12 µM | 8.2 µM | 5.4 µM | –
16 | COc1cc(OC)c(-c2cn3ccc(N4CCC(NS(C)(=O)=O)C4)cc3n2)cc1Cl (stereo not shown) [Example 40, N-(1-(2-(5-chloro-2,4-dimethoxyphenyl)imidazo[1,2-a]pyridin-7-yl)pyrrolidin-3-yl)methanesulfonamide] | 0.00381 µM | 17 µM | 15 µM | 14 µM | 6.7 µM | 14 µM | –
17 | COc1cc(OC)c(-c2cn3ccc(N4CCC(CO)CC4)cc3n2)cc1Cl [Example 41, (1-(2-(5-chloro-2,4-dimethoxyphenyl)imidazo[1,2-a]pyridine-7-yl)piperidin-4-yl)methanol] | 0.0054 µM | 3.2 µM | 3.1 µM | 3.5 µM | 2.8 µM | 2.9 µM | –
18 | COc1cc(OC)c(-c2cn3ccc(-c4ccc(C(=O)[C@H](C)N)cc4)cc3n2)cc1Cl [Example 274, (S)-2-amino-1-(4-(2-(5-chloro-2,4-dimethoxyphenyl)imidazo[1,2-a]-pyridin-7-yl)phenyl)propan-1-one hydrochloride] | – | – | – | – | – | – | IC50 ([1]; Homo sapiens, A549, 72 h): 1.2 µM; IC50 [3, 12]: 1.5 µM; IC50 [4, 13]: 1.6 µM; IC50 [5, 14]: 0.74 µM; IC50 [6, 15]: 1.4 µM
19 | COc1cc(OC)c(-c2cn3ccc(N4CC[C@H](NCc5ccncc5)C4)cc3n2)cc1Cl [Example 298, (S)-1-(2-(5-chloro-2,4-dimethoxyphenyl)imidazo[1,2-a]pyridin-7-yl)-N-(pyridin-4-ylmethyl)pyrrolidin-3-amine trihydrochloride] | – | – | – | – | – | – | IC50 ([1]; Homo sapiens, A549 cells, 72 hours, Cell Counting Kit-8): 0.67 µM; IC50 [3, 12]: 1.4 µM; IC50 [4, 13]: 0.5 µM; IC50 [5, 14]: 0.79 µM; IC50 [6, 15]: 0.84 µM

Source: patent US10508109B2 (priority 2015, dated 2019)
